Marks after values point to notes of the source that are not given here.
Legend:
[1] = test system: human lung adenocarcinoma cell line (SK-LU-1); experiment: Cell viability assay (neutral red), SK-LU-1; assay type: cell-based
Procedure: (§1) The human lung adenocarcinoma cell line (SK-LU-1), human colon carcinoma cell line (HCT116), human hepatocellular carcinoma cell line (HepG2) and noncancerous African green monkey kidney epithelial cell line (Vero) were cultured in Dulbecco’s modified Eagle’s medium (DMEM) supplemented with 10% fetal bovine serum, 100 IU/mL penicillin and […] streptomycin. Cells were incubated at 37 °C with 95% air and 5% CO2 until they reached approximately 80% confluence before use.
(§2) Cell viability assay was assessed by neutral red (NR). Briefly, cells at a density of 3 × 10^4 cells/well were seeded in 96-wells plate and incubated for 24 h. […] After incubation time, cells were washed with PBS. NR reagent (50 µg/mL) was added to each well and incubated for another 2 h. After that, cells were washed with PBS and lyzed with 0.33% HCl in isopropanol. Cisplatin was used as a positive control. The absorbance of NR was detected using microplate reader (Tecan, Lyon, France) at 520 nm. The percentage of cell viability was calculated vis-à-vis the untreated cells and cytotoxicity was expressed as the inhibition concentration at 50% (IC50). The final DMSO concentration was not exceed 0.1%v/v to lessen the cytotoxicity (<10%).

[2] = test system: human hepatocellular carcinoma cell line (HepG2); experiment: Cell viability assay (neutral red), HepG2; assay type: cell-based
Procedure: as §1
(§3) Cell viability assay was assessed by neutral red (NR). Briefly, cells at a density of 3 × 10^4 cells/well were seeded in 96-wells plate and incubated for 24 h. The sample at concentration, ranging from 10 to 500 µM, were added and incubated for 24 h. After incubation time, cells were washed with PBS. NR reagent (50 µg/mL) was added to each well and incubated for another 2 h. After that, cells were washed with PBS and lyzed with 0.33% HCl in isopropanol. Cisplatin was used as a positive control. The absorbance of NR was detected using microplate reader (Tecan, Lyon, France) at 520 nm. The percentage of cell viability was calculated vis-à-vis the untreated cells and cytotoxicity was expressed as the inhibition concentration at 50% (IC50). The final DMSO concentration was not exceed 0.1%v/v to lessen the cytotoxicity (<10%).

HepG2 cells = experiment: Mode of cell death by Annexin V-FITC/PI staining, flow cytometry; assay type: cell-based, human
Description: In this study, double staining of cells by Annexin V-FITC/propidium iodide (PI) was used to differentiate apoptosis from necrosis. The stages of apoptosis can be distinguished from necrotic cell death by flow cytometry using Annexin V-FITC/PI double staining of HepG2 cells. During the early stages of apoptosis, the phosphatidylserine comprising the cell membrane will externalize to be exposed to the surface of apoptotic cells and bind with Annexin V-FITC, showing a cell dot plot in Quadrant 4. The cell dot plot is positively stained with Annexin V-FITC but negatively stained with PI (+/−). When cells are damaged or undergo a late state of apoptosis, cells will lose their membrane integrity, including nuclear membrane integrity, so that PI can pass through the nuclear membrane, showing a cell dot plot in Quadrant 2. […] During cell undergo necrotic cell death, cells are stained and appear in Quadrant 1 (−/+). Normal cells are not stained and appear in Quadrant 3 (−/−). The total apoptotic cell death percentage was counted from the percentage of cells undergoing an early state and late state of apoptosis gathering from Quadrants 4 and 2, while the necrotic cell death percentage was counted from Quadrant 1, as shown in Figure 2.
The Annexin V-FITC and PI apoptosis assay kit (BioLegend, San Diego, CA, USA) was used to determine mode of cell death as per previous report. The HepG2 cells (8 × 10^5 cell/mL) were seeded in a 24-well plate and incubated for 24 h. The compounds at a concentration of 1 x IC50 and 2 x IC50 were added and incubated for 12 and 24 h. After that, cells were washed with PBS and cold BioLegend’s cell staining buffer followed by staining with Annexin V-FITC and PI and cell were incubated in the dark for 15 min. The cells were analyzed by flow cytometry (BD FACSCanto II, BD Biosciences, San Jose, CA, USA) and the percentage of cells in different populations were calculated with FACSDiva software.

[3] = test system: noncancerous African green monkey kidney epithelial cell line (Vero); experiment: Cell viability assay (neutral red), Vero; assay type: cell-based; design: key to IC50 Vero: inactive: Inactive means cell viability percentage was >50% at the maximum concentration used (>100 µM for the compound or >100 µg/mL for the extract); conditions: 24 h, inactive = viability >50% at >100 µM
Procedure: as §1, §3

[4] = Ferric reducing antioxidant power (FRAP) assay; assay type: biochemical; conditions: 100 µM compound
Procedure: FRAP assay was performed following the pervious study with slight modification. FRAP reagent was prepared by mixing 300 mM acetate buffer (pH 3.6), 20 mM ferric chloride solution and 10 mM TPTZ solution in the ratio of 10:1:1 and incubated at 37 °C for 30 min. Then, 150 µL of FRAP reagent was added with 50 µL of the sample (100 µM of isolated compounds or 100 µg/mL of the CH2Cl2 crude extract) in each well of the 96-wells plate. The absorbance was measured at 595 nm using microplate reader (Tecan, Lyon, France). Trolox was used as a positive control. The FRAP value was calculated from the linear equation between the absorbance and ferrous sulfate standard curves (y = 0.0548x + 0.0213, R^2 = 0.9989) and expressed as µM of ferrous sulfate equivalents.

[5] = test system: human colon carcinoma cell line (HCT116); experiment: Cell viability assay (neutral red), HCT116; assay type: cell-based
Procedure: as §1, §2

[6] = DPPH radical scavenging assay; assay type: biochemical
Procedure: The 2,2–diphenyl–1–picrylhydrazyl (DPPH) radical scavenging assay was conducted as per the previous method. Briefly, the stock solutions of 10 mM DPPH was prepared in methanol. The DPPH was mixed with samples (100 µL each) at various concentrations (1−500 µM) in 96 wells plate and incubated for 30 min in a dark condition. The absorbance of DPPH radical was measured at 517 nm using a microplate reader (Tecan, Lyon, France). Trolox was used as a positive control. The half maximum inhibitory concentration (IC50 value) was calculated from the plot of percentage of DDPH radical inhibition versus concentration of samples using the following formula: % DPPH radical inhibition = [(Ab − As)/Ab] × 100,(1) where Ab = absorbance of the reagent blank, and As = absorbance of the sample. Each experiment was done in five replications and results are expressed as average values.

[7] = cancer cells over noncancerous Vero cells
[8] = 30 min in the dark, absorbance 517 nm

IC50 ([1]; Homo sapiens, SK-LU-1, 24 h, neutral red, inactive = viability >50% at >100 µM): 94.4 ± 2.2 µM | IC50 ([2]; Homo sapiens, HepG2, 24 h, neutral red): 78.2 ± 2.2 µM | IC50 ([5]; Homo sapiens, HCT-116, 24 h, neutral red, inactive = viability >50% at >100 µM): 79.8 ± 2.8 µM | DPPH Assay IC50 [6, 8]: 63.8 ± 0.8^d µg/mL | IC50 [6, 8]: 247 ± 3 µM
SMILES: COc1c2c(cc3oc(=O)ccc13)OC(C)(C)C=C2 [Xanthoxyletin (4), xanthoxyletin]
Selectivity Index SK-LU-1 [1, 7]: (1.1) | Selectivity Index HepG2 [2, 7]: (1.3) | necrotic cell death percentage (Q1, Annexin V-FITC/PI −/+) (HepG2 cells; HepG2, 1 × IC50, 12 h): 2.5 ± 0.7% | apoptotic cell death percentage (total, Quadrants 4 and 2) (HepG2 cells; HepG2, 1 × IC50, 24 h): 49.7 ± 1.1% | necrotic cell death percentage (Q1, Annexin V-FITC/PI −/+) (HepG2 cells; HepG2, 1 × IC50, 24 h): 1.6 ± 0.9% | apoptotic cell death percentage (total, Quadrants 4 and 2) (HepG2 cells; HepG2, 2 × IC50, 12 h): 49.6 ± 1.2% | necrotic cell death percentage (Q1, Annexin V-FITC/PI −/+) (HepG2 cells; HepG2, 2 × IC50, 12 h): 2.9 ± 1.2% | apoptotic cell death percentage (total, Quadrants 4 and 2) (HepG2 cells; HepG2, 2 × IC50, 24 h): 64.2 ± 3.2% | necrotic cell death percentage (Q1, Annexin V-FITC/PI −/+) (HepG2 cells; HepG2, 2 × IC50, 24 h): 2.7 ± 1.1% | IC50 Vero [3]: inactive^cB | FRAP Value [4]: 5.2 ± 0.3^f µM FeSO4 Equivalents | FRAP Value ([4]; listed as xanthoxyletin): 5.2 µM FeSO4 Equivalents | Selectivity Index HCT116 [5, 7]: (1.3) | DPPH radical scavenging activity classification ([6]; classified from IC50 in µg/mL): low radical scavenger

From PMC6767265, “Cytotoxicity and Apoptosis Induction of Coumarins and Carbazole Alkaloids from Clausena Harmandiana” (Molecules, 2019)
